Reference: US20230227442A1, “HETEROALKYL DIHYDROQUINOLINE SULFONAMIDE COMPOUNDS” (AMGEN INC., priority 2020, published 2023)

Key:
[1] = system: CYP3A4; assay: Human CYP 3A4 induction assay (mRNA, cryopreserved human hepatocytes); assay type: in vitro ADME; details: 72 hours, percent of control (POC); for CYP3A4 mRNA Induct Hu 2 uM POC: 2 uM test compound; for CYP3A4 mRNA Induct Hu 10 uM POC: 10 uM test compound
Experimental: Human CYP 3A4 Induction Assay
Cryopreserved human hepatocytes were seeded in 96-well collagen coated plates at 70,000 cells per well in hepatocyte plating media (HPM, final concentrations: lx Dulbecco's Modified Eagle's Medium, 0.1 μM dexamethasone, 10% fetal bovine serum, lx ITS, 1×PSG) followed by incubation at 37° C. under 5% CO2 and 90% relative humidity for 2 days to allow hepatocytes to form a confluent layer. On Day 3, hepatocytes were treated with either test compound or rifampin (20 μM, positive control for CYP3A induction) prepared in hepatocyte incubation media ((HIM, final concentrations: 1× William's Medium E, 0.1 μM dexamethasone, 1×ITS, 1×PSG). Treatment was performed for 72 hours with either 2 concentrations (2 μM or 10 μM) or a range of concentrations (0.001 μM to 100 μM) of the test compound to obtain full dose-response curve. Fresh media containing the relevant concentrations of the test compound was replaced every day until the samples were processed. After 72 hours of incubation, samples were processed for mRNA analysis using bDNA technology using manufacturer's instructions (Affymetrix, Fremont, Calif.). Cell viability was tested at the end of the experiment using MTT assay kit (Roche Diagnostics, Basel, Switzerland). Data was analyzed and presented as percent of control (POC) and Emax and EC50 obtained when appropriate according to guidance from Center for Drug Evaluation and Research (CDER), 2006, Guidance for Industry, Drug Interaction Studies—Study Design, Data Analysis, and Implications for Dosing and Labeling.
Cryopreserved human hepatocytes were seeded in 96-well collagen coated plates at 70,000 cells per well in hepatocyte plating media (HPM, final concentrations: lx Dulbecco's Modified Eagle's Medium, 0.1 μM dexamethasone, 10% fetal bovine serum, lx ITS, 1×PSG) followed by incubation at 37° C. under 5% CO2 and 90% relative humidity for 2 days to allow hepatocytes to form a confluent layer. On Day 3, hepatocytes were treated with either test compound or rifampin (20 μM, positive control for CYP3A induction) prepared in hepatocyte incubation media ((HIM, final concentrations: 1× William's Medium E, 0.1 μM dexamethasone, 1×ITS, 1×PSG). Treatment was performed for 72 hours with either 2 concentrations (2 μM or 10 μM) or a range of concentrations (0.001 μM to 100 μM) of the test compound to obtain full dose-response curve. Fresh media containing the relevant concentrations of the test compound was replaced every day until the samples were processed. After 72 hours of incubation, samples were processed for mRNA analysis using bDNA technology using manufacturer's instructions (Affymetrix, Fremont, Calif.). Cell viability was tested at the end of the experiment using MTT assay kit (Roche Diagnostics, Basel, Switzerland). Data was analyzed and presented as percent of control (POC) and Emax and EC50 obtained when appropriate, as described in Halladay, J. et al, 2012, An “all-inclusive” 96-well cytochrome P450 induction method: Measuring enzyme activity, mRNA levels, protein levels, and cytotoxicity from one well using cryopreserved human hepatocytes, Pharmacological and Toxicological Methods, 66:270-275.

[2] = biological target: T1, Human Nav1.7 (Homo sapiens, UniProt Q15858); assay: Ionworks Barracuda (IWB) automated patch clamp assay; assay type: cell-based; details: population patch clamp, HEK cells, 4 min compound incubation at -20 mV; read-out: hNaV1.7 IWB-U IC50
T1 construct: expressed in transfected cells; host or cells: Spiking HEK cells (without Kir2.1 transfection)
Experimental: Ionworks Barracuda Automated Patch Clamp Assay (Same Protocol for Both Human and Mouse)
Human Nav1.7 currents were recorded in population patch-clamp mode with the IWB automated electrophysiology system (Molecular Devices, LLC, Sunnyvale, Calif.). Spiking HEK cells (without Kir2.1 transfection) were cultured and prepared for recordings as previously described for IonWorks Quattro testing^1. The external solution consisted of the following (in mM): NaCl 140, KCl 5, CaCl2 2, MgCl2 1, HEPES 10, and glucose 11, pH 7.4, with N-methyl-D-glucamine at 320 mOsmol. The internal solution consisted of the following (in mM): KCl 70, KF 70, MgCl2 0.25, HEDTA 5, and HEPES 10, pH 7.25, with Nmethyl-D-glucamine, 300 mOsmol. From a holding potential of −110 mV, currents were elicited by a train of 26 depolarizations of 150 ms duration to −20 mV at a frequency of 5 Hz. Cells were then clamped to −20 mV for a period of 4 minutes in the presence of a single concentration of test compound. Following this compound incubation period, cells were clamped to −110 mV for three seconds to recover unbound channels and put through the same 26 pulse voltage protocol as above. Peak inward current during the 26th pulse to −20 mV in the presence of compound was divided by the peak inward current evoked by the 26th pulse to −20 mV in the absence of compound to determine percent inhibition. Concentration-response curves of percent inhibition as a function of concentration were generated to calculate IC50 values as described in Kornecook, T. J.; Yin, R.; Altmann, S.; et al. Pharmacologic Characterization of AMG8379, a Potent and Selective Small Molecule Sulfonamide Antagonist of the Voltage-Gated Sodium Channel NaV1. 7. J. Pharmacol. Exp. Ther. 2017, 362, 146-160.

T1 sequence (Q15858 whole entry): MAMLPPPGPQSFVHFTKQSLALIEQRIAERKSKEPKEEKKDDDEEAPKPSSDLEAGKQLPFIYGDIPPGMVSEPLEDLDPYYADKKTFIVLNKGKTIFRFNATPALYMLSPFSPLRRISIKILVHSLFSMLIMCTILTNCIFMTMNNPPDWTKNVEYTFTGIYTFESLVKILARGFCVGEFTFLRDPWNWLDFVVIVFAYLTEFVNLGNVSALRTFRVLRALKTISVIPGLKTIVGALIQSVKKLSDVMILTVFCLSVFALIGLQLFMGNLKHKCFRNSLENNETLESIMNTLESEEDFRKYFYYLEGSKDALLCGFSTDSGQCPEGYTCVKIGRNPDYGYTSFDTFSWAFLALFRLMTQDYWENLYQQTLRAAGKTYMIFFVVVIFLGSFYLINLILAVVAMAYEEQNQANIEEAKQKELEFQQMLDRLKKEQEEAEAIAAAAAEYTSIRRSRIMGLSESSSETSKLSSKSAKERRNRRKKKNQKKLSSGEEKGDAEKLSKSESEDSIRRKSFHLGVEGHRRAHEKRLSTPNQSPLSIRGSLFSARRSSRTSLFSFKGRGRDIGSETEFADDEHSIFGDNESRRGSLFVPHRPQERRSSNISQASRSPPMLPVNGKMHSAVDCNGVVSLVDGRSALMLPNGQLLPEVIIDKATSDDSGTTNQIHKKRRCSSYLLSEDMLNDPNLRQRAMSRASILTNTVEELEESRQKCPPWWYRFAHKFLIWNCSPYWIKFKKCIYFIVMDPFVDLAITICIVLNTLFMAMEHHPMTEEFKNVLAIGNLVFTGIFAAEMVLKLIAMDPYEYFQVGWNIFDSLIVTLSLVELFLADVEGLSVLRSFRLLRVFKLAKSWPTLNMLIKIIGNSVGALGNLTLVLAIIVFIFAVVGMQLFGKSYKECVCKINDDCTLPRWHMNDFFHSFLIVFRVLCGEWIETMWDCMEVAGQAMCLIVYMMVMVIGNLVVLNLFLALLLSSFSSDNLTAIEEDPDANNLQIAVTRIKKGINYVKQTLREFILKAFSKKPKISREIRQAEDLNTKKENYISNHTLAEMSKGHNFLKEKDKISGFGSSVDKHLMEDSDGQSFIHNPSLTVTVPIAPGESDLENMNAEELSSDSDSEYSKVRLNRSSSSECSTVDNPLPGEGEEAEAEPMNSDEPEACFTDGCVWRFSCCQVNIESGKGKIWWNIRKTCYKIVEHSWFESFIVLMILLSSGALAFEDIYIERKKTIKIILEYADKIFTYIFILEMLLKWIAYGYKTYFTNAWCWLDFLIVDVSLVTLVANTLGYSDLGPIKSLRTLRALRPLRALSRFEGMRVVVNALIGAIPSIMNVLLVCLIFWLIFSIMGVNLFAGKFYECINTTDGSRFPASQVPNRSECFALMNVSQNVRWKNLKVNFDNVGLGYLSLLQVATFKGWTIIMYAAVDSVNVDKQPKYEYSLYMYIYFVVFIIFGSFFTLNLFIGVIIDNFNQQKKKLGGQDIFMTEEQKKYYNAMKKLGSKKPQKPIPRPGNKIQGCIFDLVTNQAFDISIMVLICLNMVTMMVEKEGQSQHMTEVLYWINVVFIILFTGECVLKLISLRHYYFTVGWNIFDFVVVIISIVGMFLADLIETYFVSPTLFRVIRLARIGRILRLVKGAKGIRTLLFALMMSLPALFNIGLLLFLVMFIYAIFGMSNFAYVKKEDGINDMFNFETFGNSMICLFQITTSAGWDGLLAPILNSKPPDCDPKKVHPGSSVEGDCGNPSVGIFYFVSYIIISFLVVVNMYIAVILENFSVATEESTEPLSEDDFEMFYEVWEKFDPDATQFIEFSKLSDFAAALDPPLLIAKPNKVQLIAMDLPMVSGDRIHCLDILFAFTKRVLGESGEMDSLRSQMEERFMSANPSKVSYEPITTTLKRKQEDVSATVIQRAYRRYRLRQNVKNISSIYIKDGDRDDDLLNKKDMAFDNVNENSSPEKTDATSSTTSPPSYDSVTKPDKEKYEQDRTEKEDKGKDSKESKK

SMILES	CYP3A4 mRNA Induct Hu 2 uM POC [1]	CYP3A4 mRNA Induct Hu 10 uM POC [1]	IC50 [2]
COc1cc(OC(F)(F)F)c(Cl)cc1-n1c(=O)ccc2cc(S(=O)(=O)Nc3ccon3)ccc21 (atropisomer, axis not shown; (P)) [Example 3, (P)-1-(5-chloro-2-methoxy-4-(trifluoromethoxy)phenyl)-N-(isoxazol-3-yl)-2-oxo-1,2-dihydroquinoline-6-sulfonamide]	10.1%	35.4%	9 nM
COc1cc(O[C@@H](C)C(F)(F)F)c(F)cc1-n1c(=O)ccc2cc(S(=O)(=O)Nc3ccon3)ccc21 (atropisomer, axis not shown; (P)) [Example 18, (P)-(S)-1-(5-fluoro-2-methoxy-4-((1,1,1-trifluoropropan-2-yl)oxy)phenyl)-N-(isoxazol-3-yl)-2-oxo-1,2-dihydroquinoline-6-sulfonamide]	2.6%	9.5%	27 nM
COc1cc(SC(F)(F)F)c(F)cc1-n1c(=O)cc(F)c2cc(S(=O)(=O)Nc3ccon3)ccc21 [Example 11, P-4-fluoro-1-(5-fluoro-2-methoxy-4-((trifluoromethyl)thio)phenyl)-N-(isoxazol-3-yl)-2-oxo-1,2-dihydroquinoline-6-sulfonamide]	7.3%	48.1%	10 nM
COc1cc(COC(F)(F)F)c(F)cc1-n1c(=O)ccc2cc(S(=O)(=O)Nc3ccon3)ccc21 (atropisomer, axis not shown; (P)) [Example 4, (P)-1-(5-fluoro-2-methoxy-4-((trifluoromethoxy)methyl)phenyl)-N-(isoxazol-3-yl)-2-oxo-1,2-dihydroquinoline-6-sulfonamide]	0.2%	0.2%	11 nM
COc1cc(OCC(F)(F)F)c(F)cc1-n1c(=O)ccc2cc(S(=O)(=O)Nc3ccon3)c(F)cc21 [Example 14]	3.6%	21.4%	23 nM
COc1cc(SCC(F)(F)F)c(F)cc1-n1c(=O)ccc2cc(S(=O)(=O)Nc3ccon3)ccc21 (atropisomer, axis not shown; (P)) [Example 5, (P)-1-(5-fluoro-2-methoxy-4-((2,2,2-trifluoroethyl)thio)phenyl)-N-(isoxazol-3-yl)-2-oxo-1,2-dihydroquinoline-6-sulfonamide]	3.4%	7.5%	11 nM
COc1cc(SC(F)(F)F)ccc1-n1c(=O)ccc2cc(S(=O)(=O)Nc3ccon3)ccc21 (atropisomer, axis not shown; (P)) [Example 23]	7.4%	25.1%	39 nM
COc1cc(SC(F)(F)F)c(F)cc1-n1c(=O)ccc2cc(S(=O)(=O)Nc3ncccn3)c(F)cc21 (atropisomer, axis not shown; (P)) [Example 19, (P)-7-fluoro-1-(5-fluoro-2-methoxy-4-((trifluoromethyl)thio)phenyl)-2-oxo-N-(pyrimidin-2-yl)-1,2-dihydroquinoline-6-sulfonamide]	17.4%	49.2%	29 nM
COc1cc(COC(F)(F)F)c(Cl)cc1-n1c(=O)ccc2cc(S(=O)(=O)Nc3ccon3)ccc21 (atropisomer, axis not shown; (P)) [Example 1, (P)-1-(5-chloro-2-methoxy-4-((trifluoromethoxy)methyl)phenyl)-N-(isoxazol-3-yl)-2-oxo-1,2-dihydroquinoline-6-sulfonamide]	1.7%	–	7 nM
COc1cc(OCCC(F)(F)F)c(F)cc1-n1c(=O)ccc2cc(S(=O)(=O)Nc3ccon3)c(F)cc21 (atropisomer, axis not shown; (P)) [Example 22, (P)-7-fluoro-1-(5-fluoro-2-methoxy-4-(3,3,3-trifluoropropoxy)phenyl)-N-(isoxazol-3-yl)-2-oxo-1,2-dihydroquinoline-6-sulfonamide]	14.8%	41.5%	34 nM
COc1cc(SC(F)(F)F)c(C)cc1-n1c(=O)ccc2cc(S(=O)(=O)Nc3ccon3)ccc21 [Example 12, P-N-(isoxazol-3-yl)-1-(2-methoxy-5-methyl-4-((trifluoromethyl)thio)phenyl)-2-oxo-1,2-dihydroquinoline-6-sulfonamide]	20.2%	61.2%	14 nM
COc1cc(OCC(F)(F)F)c(F)cc1-n1c(=O)ccc2cc(S(=O)(=O)Nc3ccon3)ccc21 (atropisomer, axis not shown; (P)) [Example 10, (P)-1-(5-fluoro-2-methoxy-4-(2,2,2-trifluoroethoxy)phenyl)-N-(isoxazol-3-yl)-2-oxo-1,2-dihydroquinoline-6-sulfonamide]	10.8%	35.7%	21 nM
COc1nc(SC(F)(F)F)c(F)cc1-n1c(=O)ccc2cc(S(=O)(=O)Nc3ccon3)ccc21 (atropisomer, axis not shown; (P)) [Example 26, (P)-1-(5-fluoro-2-methoxy-6-((trifluoromethyl)thio)pyridin-3-yl)-N-(isoxazol-3-yl)-2-oxo-1,2-dihydroquinoline-6-sulfonamide]	5.7%	25.6%	185 nM
COc1cc(SC(F)(F)F)c(Cl)cc1-n1c(=O)ccc2cc(S(=O)(=O)Nc3ccon3)ccc21 (atropisomer, axis not shown; (P)) [Example 2, (P)-1-(5-chloro-2-methoxy-4-((trifluoromethyl)thio)phenyl)-N-(isoxazol-3-yl)-2-oxo-1,2-dihydroquinoline-6-sulfonamide]	–	–	8 nM
